According to patent US20180296537A1, “METHODS AND COMPOSITIONS FOR DIAGNOSING, TREATING, AND MONITORING TREATMENT OF SHANK3 DEFICIENCY ASSOCIATED DISORDERS” (Novartis AG, priority 2015, published 2018):

Experiments:
Shank3^ΔC/ΔC mice [1] = assay: Spontaneous self-grooming; type: in vivo, mouse; conditions: 10 minute interval; TG003-treated Shank3^ΔC/ΔC mice
Description: To monitor spontaneous self-grooming, mice were placed in a clean cage (identical to the home cage), with minimal bedding to discourage digging, which was then placed in the sound-proof box for video monitoring. Animals were habituated in the new cage for 10 minutes before self-grooming was monitored during another 10 minutes. Cumulative grooming time was reported for this second 10 minute period.

Shank3^ΔC/ΔC mice [2] = assay: Marble burying (avoidance behavior); type: in vivo, mouse; conditions: 30 minutes, 20 marbles; TG003 treatment
Description: To assess avoidance behavior by marble burying, 20 black marbles were evenly distributed in rows in a novel home cage on top of 5 cm of fresh bedding and mice were left undisturbed for 30 minutes in the cage. The number of marbles to at least ⅔ depth were then recorded.

[3] = system: IGF-signaling impaired zebrafish model; conditions: cited from earlier work
CA1 neurons = assay: mEPSC recordings from shRNA-expressing CA1 neurons in hippocampal organotypic slice cultures; type: cell-based, mouse; conditions: Shank3 knock down neurons; overnight 4 μg/ml SC79
Description: Organotypice slices and cell cultures were transferred from growth medium to an interface chamber containing ACSF equilibrated with 95% O2/5% CO2 containing the following (in mM): 124 NaCl, 2.7 KCl, 2 CaCl2, 1.3 MgCl2, 26 NaHCO3, 0.4 NaH2PO4, 18 glucose, 4 ascorbate. Recordings were performed with ACSF in a recording chamber at a temperature of 35° C. at a perfusion rate of 1-2 ml/min. Neurons were visually identified with infrared video microscopy using an upright microscope equipped with a 40× objective (Olympus, Tokyo, Japan). Patch electrodes (3-5 MΩ) were pulled from borosilicate glass tubing. […]
Whole cell patch-clamp recordings were excluded if the access resistance exceeded 13 MΩ and changed more than 20% during the recordings. Data were recorded with a MultiClamp 700B (Molecular Devices) amplifier, filtered at 0.2 kHz, and digitised at 10 kHz. Data were acquired and analysed with Clampex 10.0, Clampfit 10.0 (Molecular Devices) and the Mini Analysis Program (Synaptosoft, Decatur, Ga.). […]
Given that SC79 and TG003 were able to recover spine numbers in Shank3 knock down neurons, the reinstatement of synaptic transmission was examined next. First, miniature excitatory postsynaptic currents (mEPSCs) were recorded from shRNA-expressing CA1 neurons in hippocampal organotypic slice cultures. […]

Compound	self-grooming (Shank3^ΔC/ΔC mice [1])	avoidance behavior, marble burying (Shank3^ΔC/ΔC mice [2])	habituation learning [3]	mEPSC frequency (CA1 neurons)
CCN1/C(=C/C(C)=O)Sc2ccc(OC)cc21 [TG003, (Z)-1-(3-ethyl-5-methoxy-2,3-dihydrobenzothiazol-2-ylidene)propan-2-one]	significantly decreased self-grooming although not to wild type frequency	refractory to treatment with TG003		
CCOC(=O)C1=C(N)Oc2ccc(Cl)cc2C1C(C#N)C(=O)OCC (stereo not shown) [SC79]			restore habituation learning	completely restored mEPSC frequency to control levels
